Data set [1] concerns ∆pfeA(pMMBpfeAR480AQ482A) cells (double-mutant PfeA). Nature of the data set: 55Fe-enterobactin binding and uptake assay, ∆pfeA(pMMBpfeAR480AQ482A). The format is cell-based, Pseudomonas aeruginosa. The conditions noted are these: 500 nM ^55Fe-enterobactin, 30 min. Here is the method:
(§1) Fig. 6 Effects of PfeA mutation in vivo. a Analysis of changes in the transcription of pfeA gene. PAO1 strain, its corresponding deletion mutant ∆pfeA and deletion mutants carrying the expression plasmid of PfeA wild-type (∆pfeA(pMMBpfeA) or the R480A-Q482A mutant (∆pfeA(pMMBpfeAR480AQ482A)) were grown in CAA medium supplemented with 10 µM enterobactin. The data were normalised relative to the reference gene uvrD, and are representative of three independent experiments performed in triplicate (n = 3). The results are given as a ratio between the values obtained for ∆pfeA, ∆pfeA(pMMBpfeA) and ∆pfeA(pMMBpfeAR480AQ482A) over those obtained for the PAO1 strain. b ^55Fe-enterobactin binding at the bacterial surface. Cells were grown as in panel a, and were incubated for 15 min with 200 µM CCCP before initiation of transport assays by the addition of 500 nM ^55Fe-enterobactin. After 30 min incubation, the radioactivity accumulated in the bacteria was counted. The results are expressed as pmol of ^55Fe-enterobactin bound per ml of cells at an OD600 of 1. The experiments have been repeated three times. c ^55Fe-enterobactin binding and uptake. Cells were grown as in panel a, and were incubated with or without 200 µM CCCP before initiation of transport assays by the addition of 500 nM ^55Fe-enterobactin. After 30 min incubations, the radioactivity accumulated in the bacteria was counted. The results are expressed as pmol of ^55Fe-enterobactin bound and transported per ml of cells at an OD600 of 1. The experiments have been repeated three times
(§2) The complex was prepared at ^55Fe concentrations of 50 μM, with a siderophore:iron (mol:mol) ratio of 20:1. P. aeruginosa strains were first grown overnight at 30 °C in LB broth, and were then washed, resuspended and cultured overnight at 30 °C in iron-deficient CAA medium (casamino acid medium, composition: 5 g.l^−1 low-iron CAA (Difco), 1.46 g.l^−1 K2HPO4 3H2O, 0.25 g.l^−1 MgSO4 7H2O) and in the presence of 10 µM enterobactin to induce the expression of PfeA. CAA is a highly iron-restricted medium with iron concentrations of 20 nM[59]. Afterwards bacteria were washed with 50 mM Tris-HCl pH 8.0, and diluted to an OD600 of 1. Cells solutions were divided in two, one batch being treated with 200 μM CCCP. This compound collapses the proton-motive force across the bacterial cell membranes, inhibiting TonB-dependent iron uptake. Binding and transport assays were initiated by adding 500 nM ^55Fe-enterobactin to the bacterial solutions treated or not with CCCP. After 30 min of incubations, cells were centrifuged, and the radioactivity associated to the bacteria was monitored in the cell pellets. For the cells treated with CCCP, the radioactivity in the cell pellets corresponds to the binding of ^55Fe-enterobactin to P. aeruginosa cell surface, since no uptake occurs. In the absence of CCCP, the radioactivity associated to the cells corresponds to ^55Fe-enterobactin binding to the cell surface and the uptake into the bacteria.

Data set [2] has as its system ∆pfeA(pMMBpfeA) cells (native PfeA). Nature of the data set: 55Fe-enterobactin binding and uptake assay, ∆pfeA(pMMBpfeA). The class given is cell-based, Pseudomonas aeruginosa. The conditions noted are these: cells not treated with CCCP, 500 nM ^55Fe-enterobactin, 30 min. Here is the method: as §1, §2
On the set-up of data set [3]: method as in doi:10.1021/ja00514a037, PMID 12453412. The conditions noted are these: cited from earlier work.
Data set [4] has as its system pfeA gene. Put plainly: RT-qPCR of pfeA gene transcription in strains grown with 10 µM enterobactin. The format is cell-based, Pseudomonas aeruginosa. The conditions noted are these: replicate values, Figure 6a. Here is the method:
Fig. 6 Effects of PfeA mutation in vivo. a Analysis of changes in the transcription of pfeA gene. PAO1 strain, its corresponding deletion mutant ∆pfeA and deletion mutants carrying the expression plasmid of PfeA wild-type (∆pfeA(pMMBpfeA) or the R480A-Q482A mutant (∆pfeA(pMMBpfeAR480AQ482A)) were grown in CAA medium supplemented with 10 µM enterobactin. The data were normalised relative to the reference gene uvrD, and are representative of three independent experiments performed in triplicate (n = 3). The results are given as a ratio between the values obtained for ∆pfeA, ∆pfeA(pMMBpfeA) and ∆pfeA(pMMBpfeAR480AQ482A) over those obtained for the PAO1 strain. b ^55Fe-enterobactin binding at the bacterial surface. Cells were grown as in panel a, and were incubated for 15 min with 200 µM CCCP before initiation of transport assays by the addition of 500 nM ^55Fe-enterobactin. After 30 min incubation, the radioactivity accumulated in the bacteria was counted. The results are expressed as pmol of ^55Fe-enterobactin bound per ml of cells at an OD600 of 1. The experiments have been repeated three times. c ^55Fe-enterobactin binding and uptake. Cells were grown as in panel a, and were incubated with or without 200 µM CCCP before initiation of transport assays by the addition of 500 nM ^55Fe-enterobactin. After 30 min incubations, the radioactivity accumulated in the bacteria was counted. The results are expressed as pmol of ^55Fe-enterobactin bound and transported per ml of cells at an OD600 of 1. The experiments have been repeated three times […]
Specific pfeA gene transcription was measured by reverse transcription-quantitative PCR (RT-qPCR) from 16 h cultures in CAA medium as described in Supplementary Methods. […]
The supernatant […]
was discarded, and inner membrane proteins were solubilized in lysis buffer with 1% (w/v) N-lauroylsarkosine (Sigma-Aldrich). […]
Quantitative real-time PCR. […] The amounts of specific cDNA were assessed in a StepOne Plus instrument (Applied Biosystems) by using a Power Sybr Green PCR Master Mix […]
(In qPCR the cycle at which signal appears reflects the starting amount.)

The source of these data is publication PMC6694100, “The complex of ferric-enterobactin with its transporter from Pseudomonas aeruginosa suggests a two-site model” (Nature Communications, 2019).

“And” between values parts separate entries of the source, which are not always exact repeats. Equal entries are not always repeated.

For `O=C(N[C@H]1COC(=O)[C@@H](NC(=O)c2cccc(O)c2O)COC(=O)[C@@H](NC(=O)c2cccc(O)c2O)COC1=O)c1cccc(O)c1O` [Enterobactin, enterobactin], in data set [1] (CCCP treated cells (200 µM)), the “^55Fe-enterobactin binding at the bacterial surface” value was “does not bind”. The results for the “^55Fe-enterobactin binding and uptake” value in data set [1] (cells not treated with CCCP) and in data set [2] were “not competent for the uptake” and “actively taken up”, respectively. For the same molecule, in data set [3], the “stability when not bound to iron” value is “easily degraded”. In addition, the “pfeA gene transcription (RT-qPCR)” value was 105.534 and 104.018 and 99.7495 and 101.79 and 78.5683 and 111.303 and 100.693 and 97.5736 and 107.445 in data set [4] (strain ΔpfeA (pMMBpfeA R480AQ482A)); 181.293 and 171.592 and 180.688 and 175.586 and 141.721 and 155.679 and 152.232 and 181.628 and 183.778 in data set [4] (strain ΔpfeA (pMMBpfeA)); 0.006806 and 0.03712 and 0.02449 and 0.03211 and 0.01571 and 0.01618 and 0.0116 and 0.02148 and 0.01134 in data set [4] (strain ΔpfeA).
